The record followed here is patent US20210038607A1, “OXADIAZOLYLTHIOPHENE DERIVATIVES USEFUL AS HISTONE DEACETYLASE INHIBITORS” (Karus Therapeutics Limited, priority 2018, published 2021).

One test has as its target T1, Human HDAC11 (Homo sapiens, UniProt Q96DB2).
T1 construct: Human HDAC11 (full length); His (N); host or cells: baculovirus expression system
T1 sequence (Q96DB2 1-347): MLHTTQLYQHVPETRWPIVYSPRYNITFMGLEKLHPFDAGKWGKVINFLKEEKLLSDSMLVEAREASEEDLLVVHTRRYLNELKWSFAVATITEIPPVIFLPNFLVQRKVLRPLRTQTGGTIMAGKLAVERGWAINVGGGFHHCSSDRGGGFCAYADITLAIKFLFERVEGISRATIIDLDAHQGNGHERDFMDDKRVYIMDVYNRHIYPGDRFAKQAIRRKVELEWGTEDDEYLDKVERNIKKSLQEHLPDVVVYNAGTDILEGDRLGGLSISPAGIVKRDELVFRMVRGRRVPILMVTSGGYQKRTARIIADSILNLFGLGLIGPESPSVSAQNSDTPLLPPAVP
Description: HDAC11 biochemical assay, class IIa-specific substrate. The settings on record: read-out: HDAC Isoform IC50 (nM) 11. A digest of the protocol: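 Full-length N-His human HDAC11 from baculovirus, 5 ng/μl, incubated with 50 μM Boc-Lys(trifluoroacetyl)-AMC for 30 min at 30 °C. Buffer: 50 mM Tris-HCl pH 8.0, 137 mM NaCl, 2.7 mM KCl, 1 mM MgCl2, 1 mg/mL BSA, 1% DMSO. Developer releases AMC; fluorescence read at 360/460 nm.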

The subject of test [1] is acetylated histone H3 in A549 lung adenocarcinoma cells. The test is described as follows: Acetylated histone H3 in-cell western (ICW) assay. It is filed as cell-based. The settings on record: Homo sapiens, 16 h exposure, relative to 40 μM Trichostatin A positive control, read-out: EC50 Ac-histone H3, A549 cells. How it is done:
Acetylated α-Tubulin and Histone H3 in-Cell Western (ICW) Assays
A549 cells were maintained in DMEM (Life Technologies)+10% FBS+2 mM glutamine & penicillin (10 μg/mL) and streptomycin ([…]. 10,000 A549 cells per well were plated into 96 well tissue culture plates (Corning) and incubated at 37° C. overnight in a humidified atmosphere containing 5% CO2 prior to addition of compounds. Compounds (dissolved in 100% DMSO) were diluted into cell culture media at 2× final assay concentration. 2× compound or DMSO (negative control) were added to cells (final DMSO concentration 0.4%). Untreated control wells received media. For acetylated α-tubulin assays, 40 μM scriptaid was used as a positive control. For acetylated histone H3 assays, 40 μM Trichostatin A (TSA) was used as a positive control. Cells were exposed to compound at 37° C. in a humidified atmosphere containing 5% CO2 for 16 h.
Measurement of the impact of compounds on levels of acetylated α-tubulin and histone H3 was performed using specific antibodies and near-infrared immunofluorescent dyes. Briefly, media was removed from wells of assay plates. Cells were washed once with PBS and fixed in 3.7% formaldehyde PBS solution at room temperature for 20 min. Cells were then permeabilised by washing 5 times in 0.1% triton-X-100 PBS at room temperature with gentle agitation for 5 min per wash. Non-specific antibody staining was blocked by the addition of Odyssey blocking buffer (Li-Cor) for 1.5 h at room temperature with gentle agitation. Cells were then incubated with primary antibody (mouse monoclonal anti-acetylated α-tubulin (clone 6-11B-1), Sigma or rabbit polyclonal anti-acetylated histone H3, Millipore) diluted in Odyssey blocking buffer at 4° C. with gentle shaking overnight (no antibody control and secondary antibody only wells were incubated with Odyssey blocking buffer only). Cells were washed five times with 0.1% tween PBS and labelled with secondary antibody (IR dye 800CW-conjugated goat anti mouse IgG or -goat anti rabbit IgG, Li-Cor) and cell stains Sapphire700 (Li-Cor) and Draq5 (Biostatus) diluted in Odyssey blocking buffer at room temperature in the dark with gentle shaking for 1 h (no antibody control wells were incubated with Odyssey blocking buffer only and secondary antibody only with diluted secondary antibody but no cell stains). Cells were washed with 0.1% Tween PBS five times and scanned using a Li-Cor Odyssey SA plate reader in 700 and 800 nm channels. Acetylated α-tubulin or histone H3 signal was normalised to cell number using the cell stain signal. Percentage increase in acetylated α-tubulin or histone H3 after compound treatment over the mean of DMSO treated controls, relative to scriptaid and TSA positive controls, respectively was calculated. EC50 values were calculated using GraphPad Prism software and nonlinear regression with 0% bottom and 100% top constraints.

Another test deals with T2, Human HDAC10 (Homo sapiens, UniProt Q969S8).
T2 construct: Human HDAC10 (a.a. 1-481); GST (N); His (C); host or cells: baculovirus expression system
T2 sequence (Q969S8 1-481): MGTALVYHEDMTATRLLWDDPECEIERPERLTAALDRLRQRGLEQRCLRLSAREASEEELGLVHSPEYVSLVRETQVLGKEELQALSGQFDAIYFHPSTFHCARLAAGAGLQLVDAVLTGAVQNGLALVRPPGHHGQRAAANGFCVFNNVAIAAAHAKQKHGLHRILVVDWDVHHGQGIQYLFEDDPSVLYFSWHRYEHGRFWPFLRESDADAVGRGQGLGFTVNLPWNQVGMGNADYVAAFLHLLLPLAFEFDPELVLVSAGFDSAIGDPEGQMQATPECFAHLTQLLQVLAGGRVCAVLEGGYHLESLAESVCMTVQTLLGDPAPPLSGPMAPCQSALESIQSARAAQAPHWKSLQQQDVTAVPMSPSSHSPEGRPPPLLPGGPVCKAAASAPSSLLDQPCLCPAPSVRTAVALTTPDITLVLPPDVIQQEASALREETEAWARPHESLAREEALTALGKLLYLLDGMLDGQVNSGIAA
Description: HDAC10 biochemical assay, AMC-labeled peptide substrate. The settings on record: read-out: HDAC Isoform IC50 (nM) 10. A digest of the protocol: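 Two-step fluorogenic read-out (Ex/Em 360/460) after developer digestion of deacetylated RHKK(Ac)AMC (50 μM). Deacetylation ran 2 h at 30 °C with 12 ng/ul HDAC10 (aa 1-481, GST/His tags, baculovirus) in Tris-HCl pH 8.0, BSA, 1% DMSO.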

The structures appear in SMILES notation.

Take `O=C(c1cnnc(N(Cc2ccc(-c3noc(C(F)(F)F)n3)s2)c2cnccn2)c1)N1CCOCC1` [Example EB, 5-(Morpholine-4-carbonyl)-N-(pyrazin-2-yl)-N-({5-[5-(trifluoromethyl)-1,2,4-oxadiazol-3-yl]thiophen-2-yl}methyl)pyridazin-3-amine]: the IC50 on Human HDAC11 and at Human HDAC10 was above 10000 nM each time. In addition, the concentration giving a half-maximal response (EC50) (in general, the concentration at which the effect is half-maximal) in test [1] is at least 10 µM.

For `CN1CCN(C(=O)c2cnnc(N(Cc3ccc(-c4noc(C(F)(F)F)n4)s3)c3cnccn3)c2)CC1` [Example EC, 5-(4-Methylpiperazine-1-carbonyl)-N-(pyrazin-2-yl)-N-({5-[5-(trifluoromethyl)-1,2,4-oxadiazol-3-yl]thiophen-2-yl}methyl)pyridazin-3-amine], the IC50 on Human HDAC11 and at Human HDAC10 was above 10000 nM in each case. For the same molecule, the EC50 in test [1] was at least 10 µM.

Take `O=C(c1cnnc(N(Cc2ccc(-c3noc(C(F)(F)F)n3)s2)c2cnccn2)c1)N1CCS(=O)(=O)CC1` [Example ED, 4-{6-[(Pyrazin-2-yl)({5-[5-(trifluoromethyl)-1,2,4-oxadiazol-3-yl]thiophen-2-yl}methyl)amino]pyridazine-4-carbonyl}-1λ^6-thiomorpholine-1,1-dione]: the IC50 at Human HDAC11 and at Human HDAC10 was above 10000 nM throughout. Moreover, the EC50 in test [1] is at least 10 µM.

On to `N#Cc1cnnc(N(Cc2ccc(-c3noc(C(F)(F)F)n3)s2)c2cnccn2)c1` [Example EE, 6-[(Pyrazin-2-yl)({5-[5-(trifluoromethyl)-1,2,4-oxadiazol-3-yl]thiophen-2-yl}methyl)amino]pyridazine-4-carbonitrile], for which the IC50 on Human HDAC11 and at Human HDAC10 was above 10000 nM throughout. Also, the EC50 in test [1] is at least 10 µM.

Take `FC(F)(F)c1cnnc(N(Cc2ccc(-c3noc(C(F)(F)F)n3)s2)c2cnccn2)c1` [Example EF, N-(Pyrazin-2-yl)-5-(trifluoromethyl)-N-({5-[5-(trifluoromethyl)-1,2,4-oxadiazol-3-yl]thiophen-2-yl}methyl)pyridazin-3-amine]: the IC50 at Human HDAC11 and at Human HDAC10 was above 10000 nM in each case. Besides, the EC50 in test [1] was at least 10 µM.

For the molecule `O=C(O)c1cnnc(N(Cc2ccc(-c3noc(C(F)(F)F)n3)s2)c2cc(C(F)(F)F)cnn2)c1` [Example ES, 6-[({5-[5-(Trifluoromethyl)-1,2,4-oxadiazol-3-yl]thiophen-2-yl}methyl)[5-(trifluoromethyl)pyridazin-3-yl]amino]pyridazine-4-carboxylicacid], the IC50 on Human HDAC11 and on Human HDAC10 was above 10000 nM throughout. The EC50 in test [1] was at least 10 µM.

For `CNC(=O)c1ccc(N(Cc2ccc(-c3noc(C(F)(F)F)n3)s2)c2cnccn2)nn1` [Example FC, N-Methyl-6-[(pyrazin-2-yl)({5-[5-(trifluoromethyl)-1,2,4-oxadiazol-3-yl]thiophen-2-yl}methyl)amino]pyridazine-3-carboxamide], the IC50 at Human HDAC11 and on Human HDAC10 was above 10000 nM in each case. For the same molecule, the EC50 in test [1] was at least 10 µM.

`O=C(c1ccc(N(Cc2ccc(-c3noc(C(F)(F)F)n3)s2)c2cnccn2)nn1)N1CC[S+]([O-])CC1` [Example FD, 4-{6-[(Pyrazin-2-yl)({5-[5-(trifluoromethyl)-1,2,4-oxadiazol-3-yl]thiophen-2-yl}methyl)amino]pyridazine-3-carbonyl}-1lambda4-thiomorpholin-1-one]: the IC50 at Human HDAC11 and at Human HDAC10 was above 10000 nM each time. In addition, the EC50 in test [1] is at least 10 µM.

As for `O=C(c1ccc(N(Cc2ccc(-c3noc(C(F)(F)F)n3)s2)c2cnccn2)nn1)N1C[C@@H]2C[C@H]1CO2` [Example FE, 6-[(1S,4S)-2-Oxa-5-azabicyclo[2.2.1]heptane-5-carbonyl]-N-(pyrazin-2-yl)-N-({5-[5-(trifluoromethyl)-1,2,4-oxadiazol-3-yl]thiophen-2-yl}methyl)pyridazin-3-amine], the IC50 on Human HDAC11 and on Human HDAC10 was above 10000 nM throughout. Also, the EC50 in test [1] was at least 10 µM.

With `O=C(c1ccc(N(Cc2ccc(-c3noc(C(F)(F)F)n3)s2)c2cnccn2)nn1)N1CCC1` [Example FF, 6-(Azetidine-1-carbonyl)-N-(pyrazin-2-yl)-N-({5-[5-(trifluoromethyl)-1,2,4-oxadiazol-3-yl]thiophen-2-yl}methyl)pyridazin-3-amine], the IC50 on Human HDAC11 and on Human HDAC10 was above 10000 nM in each case. Further, the EC50 in test [1] was at least 10 µM.

In the case of `O=C(c1ccc(N(Cc2ccc(-c3noc(C(F)(F)F)n3)s2)c2cnccn2)nn1)N1CCCCC1` [Example FG, 6-(Piperidine-1-carbonyl)-N-(pyrazin-2-yl)-N-({5-[5-(trifluoromethyl)-1,2,4-oxadiazol-3-yl]thiophen-2-yl}methyl)pyridazin-3-amine], the IC50 at Human HDAC11 and on Human HDAC10 was above 10000 nM throughout. The EC50 in test [1] was at least 10 µM.

In the case of `O=C(c1ccc(N(Cc2ccc(-c3noc(C(F)(F)F)n3)s2)c2cnccn2)nn1)N1CCC12COC2` [Example FH, 6-{6-Oxa-1-azaspiro[3.3]heptane-1-carbonyl}-N-(pyrazin-2-yl)-N-({5-[5-(trifluoromethyl)-1,2,4-oxadiazol-3-yl]thiophen-2-yl}methyl)pyridazin-3-amine], the IC50 on Human HDAC11 and on Human HDAC10 was above 10000 nM in each case. Moreover, the EC50 in test [1] was at least 10 µM.

Consider `O=C(c1ccc(N(Cc2ccc(-c3noc(C(F)(F)F)n3)s2)c2cnccn2)nn1)N1CCCC1` [Example FI, N-(Pyrazin-2-yl)-6-(pyrrolidine-1-carbonyl)-N-({5-[5-(trifluoromethyl)-1,2,4-oxadiazol-3-yl]thiophen-2-yl}methyl)pyridazin-3-amine], for which the IC50 on Human HDAC11 and on Human HDAC10 was above 10000 nM in each case. The EC50 in test [1] is at least 10 µM.

For the molecule `O=C(c1ccc(N(Cc2ccc(-c3noc(C(F)(F)F)n3)s2)c2cnccn2)nn1)N1CCC2(COC2)C1` [Example FJ, 6-{2-Oxa-6-azaspiro[3.4]octane-6-carbonyl}-N-(pyrazin-2-yl)-N-({5-[5-(trifluoromethyl)-1,2,4-oxadiazol-3-yl]thiophen-2-yl}methyl)pyridazin-3-amine], the IC50 at Human HDAC11 and on Human HDAC10 was above 10000 nM in each case. The EC50 in test [1] is at least 10 µM.
